# Assay: Henry solubility constant Hcp at 298.15 K (mol/(m3 Pa))
# Settings: reference: Copolovici and Niinemets (2015)
row,SMILES,Henry solubility constant Hcp
1,C=CC(C)(O)CC/C=C(\C)CCC=C(C)C (stereo not drawn) [nerolidol],0.00032
2,C=C1CCCC2(C)C3CCC12CC3(C)C (stereo not drawn) [β-neoclovene],0.00029
3,C=C(C)C1CCC2=CCCC(C)C2(C)C1 (stereo not drawn) [valencene],0.00032
4,C/C1=C\CC/C(C)=C/CC(C)(C)/C=C/C1 [α-humulene],0.00029
5,C=C1CC/C=C(\C)CC[C@H]2[C@H]1CC2(C)C [β-caryophyllene],0.00037
6,C=C/C(C)=C/C/C=C(\C)CCC=C(C)C [α-farnesene],0.00034
7,CC1=CCC23C[C@H]1C(C)(C)[C@H]2CC[C@@H]3C [α-cedrene],0.00028
8,CC(=O)O[C@H]1C[C@H]2CC[C@]1(C)C2(C)C [bornyl acetate],0.00038
9,CC1C=CCC2(C)C3CCC12CC3(C)C (stereo not drawn) [γ-neoclovene],0.00029
10,CC1=CCC2C3C1C2(C)CCCC3(C)C (stereo not drawn) [α-longipinene],0.00034
11,CC1=CCCC2(C)C3CCC12CC3(C)C (stereo not drawn) [α-neoclovene],0.00029
12,C=C1[C@H]2C[C@H]3[C@@H](C(C)C)CC[C@]1(C)[C@H]3C2 [isosativene],0.00039
13,C=C(C)[C@H]1C=C2[C@H](C)CC[C@@H]2[C@H](C)CC1 [γ-gurjunene],0.00033
